Data on 2 molecules can be found in PMC11623267, “Inhibitors of malaria parasite cyclic nucleotide phosphodiesterases block asexual blood-stage development and mosquito transmission” (Science Advances, 2024).

For experiment [1], the system named is P. falciparum stage IV/V gametocytes. The experiment in a line: LDH-based gametocyte viability assay. The class given is cell-based, Plasmodium falciparum. Particulars: stage IV to V gametocytes. In short, it runs like this: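 Late gametocytes (>95% stage IV/V) at 2% gametocytemia and 1% hematocrit, exposed to compound in triplicate for 72 h at 37°C, then 75% medium change to drug-free medium and another 72 h. Viability from pLDH activity with Malstat reagent (pH 9) plus PES/NBT, absorbance at 620 nm.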

For experiment [2], the system named is P. falciparum stage V gametocytes (male gamete formation). The experiment in a line: Exflagellation (male gamete formation) inhibition assay. Format: cell-based, Plasmodium falciparum. Particulars: for IC50: 48 hours exposure. In short, it runs like this: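 Mature stage V gametocytes (>95%) treated with compound for 48 h (2 μM single point, or fourfold serial dilutions), then exflagellation induced in ookinete medium with 100 μM XA and 20% human serum, compound still present. Exflagellation centres counted by video microscopy at room temperature between 15 and 22.5 min; IC50 from curves normalised to maximum and minimum inhibition.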

For experiment [3], the system named is P. falciparum stage V gametocytes (female gamete formation). The experiment in a line: Female gamete formation inhibition assay. Particulars: for IC50: 48 hours exposure. Format: cell-based, Plasmodium falciparum. In short, it runs like this: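 P. falciparum gametocytes (>95% stage V) were treated for 48 h with compound at 2 μM or in a fourfold dilution series. Female gamete formation was then triggered by a temperature drop plus 100 μM xanthurenic acid. Gametes were detected with FITC-anti-Pfs25, 30 images per sample were counted manually, and IC50 was fitted after normalisation to maximum and minimum inhibition.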

Experiment [4] deals with P. falciparum NF54 gametocytes fed to Anopheles stephensi. The experiment in a line: Initial SMFA and sporozoite production. The class given is in vivo, Plasmodium falciparum. Particulars: for Oocyst and sporozoite formation: 0.5 and 1 μM. Here is the method: P. falciparum NF54 gametocytes were prepared for blood-feeding to mosquitoes according to the method described ([57]), with some slight modifications. Briefly, gametocyte cultures seeded at 2% overall parasitemia and 4% hematocrit were maintained at 37°C for 16 days with daily medium changes. Gametocyte functional viability was assessed by an exflagellation assay at day 14 after induction, observed by light microscopy. Anopheles stephensi (SD500 strain) were reared as described ([58]). Gametocyte aliquots from a single NF54 culture, produced as above, were incubated either with SAL-0010003 or SAL-0010042 in two separate experiments at 100 nM, 500 nM or 1 μM, 1 μM methylene blue (full-block control), or culture medium only (no-drug control) from day 14 to day 16 when SMFA was carried out. Fresh drug-containing medium was provided each day during this exposure. Pots containing 70 to 80 female A. stephensi mosquitoes, aged 2 to 5 days old, were allowed to feed on 500 μl of the respective culture plus drug mixture, presented to each pot in a preheated three-dimensional printed water channel membrane feeder ([59]), until fully fed. Mosquitoes were placed in an incubator at standard conditions. Seven to 8 days after the feed, 10 to 15 mosquitoes were removed and kept under standard conditions for salivary gland dissection on day 14 after feeding. The remaining mosquito midguts were dissected on day […] or day 7, respectively, after the feed in 0.25% mercurochrome stain to determine oocyst counts by light microscopy.

In experiment [5] the test system is P. falciparum mature stage V gametocytes. The experiment in a line: Induction of gametogenesis. The class given is cell-based, Plasmodium falciparum. Particulars: 1× IC50, without XA or temperature drop. Here is the method:
Mature (>90% stage V) gametocytes were exposed to short-term treatment with two of the 5-benzyl series compounds, SAL-0010042 and SAL-0010003. In the absence of any other stressors (drop in temperature, pH increase, and XA), mature gametocytes were treated at 1× IC50 of either compound, and samples were taken at 15, 30, and 60 min. Giemsa-stained slides were prepared at these time points, and the parasite populations were evaluated morphologically using light microscopy. Male and female gametes were identified or distinguished on the basis of rounding up, shape, and size. Statistical evaluation was performed with paired, two-tailed t test (GraphPad Prism 6.0).

[6] abbreviates: Plasmodium falciparum, 2 μM, 48 hours.

As for `CC(C)c1n[nH]c2c(=O)[nH]c(Cc3ccc(F)cc3F)nc12` [SAL-0010003], the “% inhibition gametocyte viability at 15 μM” value in experiment [1] was 65.4 ± 20.3%. Moreover, the results for the inhibition at 2 µM in experiment [2] (setting [6]) and in experiment [3] (setting [6]) were 88.4 ± 17% and 71.3 ± 1.5%, respectively. The IC50 turned out to be 404 nM in experiment [2] (Plasmodium falciparum) and 273 nM in experiment [3] (Plasmodium falciparum). Moreover, in experiment [4] (100 nM), the “Infection prevalence and intensity” value is reported as “reduced”. Besides, the “Oocyst and sporozoite formation” value in experiment [4] was “Few or no oocysts or sporozoites”. Moreover, the “Time to stimulate gametogenesis of mature stage V gametocytes” value in experiment [5] is at most 15 min.

Turning to `CC(C)c1[nH]nc2c(=O)[nH]c(Cc3ccccc3F)nc12` [SAL-0010042], in experiment [1], the “% inhibition gametocyte viability at 15 μM” value is on record as 99.6 ± 1.3%. Further, in experiment [2] (2 μM, 48 hours), the “% inhibition of exflagellation at 2 μM” value worked out at 95.4 ± 18.0%. Besides, the IC50 in experiment [2] turned out to be 386 nM; in experiment [3], 238 nM. The “% inhibition of female gamete formation at 2 μM” value in experiment [3] (2 μM, 48 hours) is given as 97.7 ± 0.4%. For the same molecule, the “Oocyst and sporozoite formation” value in experiment [4] was “Few or no oocysts or sporozoites”. For the same molecule, in experiment [5], the “Time to stimulate gametogenesis of mature stage V gametocytes” value is at most 15 min.
